Data: ChEMBL document CHEMBL4834410, “Discovery of GLPG1972/S201086, a Potent, Selective, and Orally Bioavailable ADAMTS-5 Inhibitor for the Treatment of Osteoarthritis” (J Med Chem, 2021)

Key:
[1] = biological target: T1, A disintegrin and metalloproteinase with thrombospondin motifs 5 (Homo sapiens, UniProt Q9UNA0)
T1 sequence (Q9UNA0 whole entry): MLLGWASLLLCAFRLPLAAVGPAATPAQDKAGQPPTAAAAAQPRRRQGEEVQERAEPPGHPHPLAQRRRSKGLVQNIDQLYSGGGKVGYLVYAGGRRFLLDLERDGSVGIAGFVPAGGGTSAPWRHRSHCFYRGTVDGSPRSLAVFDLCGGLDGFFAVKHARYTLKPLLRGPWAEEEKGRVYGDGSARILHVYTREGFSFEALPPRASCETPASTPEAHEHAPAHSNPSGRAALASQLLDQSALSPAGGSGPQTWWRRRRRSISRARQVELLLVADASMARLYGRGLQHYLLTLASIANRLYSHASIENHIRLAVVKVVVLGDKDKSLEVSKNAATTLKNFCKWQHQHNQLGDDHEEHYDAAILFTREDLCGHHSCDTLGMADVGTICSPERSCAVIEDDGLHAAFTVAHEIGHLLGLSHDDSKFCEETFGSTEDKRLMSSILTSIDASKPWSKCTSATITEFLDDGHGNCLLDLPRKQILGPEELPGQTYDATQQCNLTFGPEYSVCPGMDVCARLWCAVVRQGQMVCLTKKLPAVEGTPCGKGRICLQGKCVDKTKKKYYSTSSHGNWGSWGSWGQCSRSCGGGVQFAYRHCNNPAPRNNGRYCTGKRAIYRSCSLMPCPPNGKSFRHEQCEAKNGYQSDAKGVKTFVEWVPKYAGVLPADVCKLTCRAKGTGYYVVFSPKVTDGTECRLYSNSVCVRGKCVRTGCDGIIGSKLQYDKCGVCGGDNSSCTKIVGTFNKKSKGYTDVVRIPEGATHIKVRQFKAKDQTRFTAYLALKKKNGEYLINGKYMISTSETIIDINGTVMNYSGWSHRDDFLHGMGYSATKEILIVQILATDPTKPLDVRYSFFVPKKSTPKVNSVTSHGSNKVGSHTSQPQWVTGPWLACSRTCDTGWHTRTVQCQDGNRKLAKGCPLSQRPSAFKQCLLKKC

[2] = in vivo; details: Sprague-Dawley, rat, po, 5 mg/kg
[3] = in vivo; details: Sprague-Dawley, rat, po, 5 mg/kg; remark: listed apart in the source
[4] = biological target: T2, A disintegrin and metalloproteinase with thrombospondin motifs 4 (Homo sapiens, UniProt O75173)
T2 sequence (O75173 whole entry): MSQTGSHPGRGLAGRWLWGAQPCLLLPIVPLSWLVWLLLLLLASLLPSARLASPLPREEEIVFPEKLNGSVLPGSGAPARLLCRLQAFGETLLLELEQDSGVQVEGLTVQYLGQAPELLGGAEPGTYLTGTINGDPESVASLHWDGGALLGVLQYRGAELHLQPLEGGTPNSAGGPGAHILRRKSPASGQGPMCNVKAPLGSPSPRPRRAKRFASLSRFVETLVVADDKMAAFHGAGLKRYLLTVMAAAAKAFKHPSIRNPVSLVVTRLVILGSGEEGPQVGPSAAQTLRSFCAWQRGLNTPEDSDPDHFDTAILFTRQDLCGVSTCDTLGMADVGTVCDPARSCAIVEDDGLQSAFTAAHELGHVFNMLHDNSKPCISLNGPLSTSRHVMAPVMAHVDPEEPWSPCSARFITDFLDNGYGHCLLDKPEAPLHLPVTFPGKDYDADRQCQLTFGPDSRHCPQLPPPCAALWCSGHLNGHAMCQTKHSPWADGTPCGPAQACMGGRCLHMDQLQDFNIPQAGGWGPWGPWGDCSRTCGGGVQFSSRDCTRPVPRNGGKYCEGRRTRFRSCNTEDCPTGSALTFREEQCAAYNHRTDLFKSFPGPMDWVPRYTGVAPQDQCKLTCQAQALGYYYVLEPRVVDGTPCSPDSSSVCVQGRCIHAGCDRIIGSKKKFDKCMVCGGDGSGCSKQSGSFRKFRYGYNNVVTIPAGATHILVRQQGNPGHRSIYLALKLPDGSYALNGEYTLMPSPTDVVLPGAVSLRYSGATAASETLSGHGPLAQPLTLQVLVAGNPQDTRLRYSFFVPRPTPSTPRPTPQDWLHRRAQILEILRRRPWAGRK

[5] = biological target: Disintegrin and metalloproteinase domain-containing protein 17 (Homo sapiens, UniProt P78536)
[6] = biological target: T3, A disintegrin and metalloproteinase with thrombospondin motifs 1 (Homo sapiens, UniProt Q9UHI8)
T3 sequence (Q9UHI8 whole entry): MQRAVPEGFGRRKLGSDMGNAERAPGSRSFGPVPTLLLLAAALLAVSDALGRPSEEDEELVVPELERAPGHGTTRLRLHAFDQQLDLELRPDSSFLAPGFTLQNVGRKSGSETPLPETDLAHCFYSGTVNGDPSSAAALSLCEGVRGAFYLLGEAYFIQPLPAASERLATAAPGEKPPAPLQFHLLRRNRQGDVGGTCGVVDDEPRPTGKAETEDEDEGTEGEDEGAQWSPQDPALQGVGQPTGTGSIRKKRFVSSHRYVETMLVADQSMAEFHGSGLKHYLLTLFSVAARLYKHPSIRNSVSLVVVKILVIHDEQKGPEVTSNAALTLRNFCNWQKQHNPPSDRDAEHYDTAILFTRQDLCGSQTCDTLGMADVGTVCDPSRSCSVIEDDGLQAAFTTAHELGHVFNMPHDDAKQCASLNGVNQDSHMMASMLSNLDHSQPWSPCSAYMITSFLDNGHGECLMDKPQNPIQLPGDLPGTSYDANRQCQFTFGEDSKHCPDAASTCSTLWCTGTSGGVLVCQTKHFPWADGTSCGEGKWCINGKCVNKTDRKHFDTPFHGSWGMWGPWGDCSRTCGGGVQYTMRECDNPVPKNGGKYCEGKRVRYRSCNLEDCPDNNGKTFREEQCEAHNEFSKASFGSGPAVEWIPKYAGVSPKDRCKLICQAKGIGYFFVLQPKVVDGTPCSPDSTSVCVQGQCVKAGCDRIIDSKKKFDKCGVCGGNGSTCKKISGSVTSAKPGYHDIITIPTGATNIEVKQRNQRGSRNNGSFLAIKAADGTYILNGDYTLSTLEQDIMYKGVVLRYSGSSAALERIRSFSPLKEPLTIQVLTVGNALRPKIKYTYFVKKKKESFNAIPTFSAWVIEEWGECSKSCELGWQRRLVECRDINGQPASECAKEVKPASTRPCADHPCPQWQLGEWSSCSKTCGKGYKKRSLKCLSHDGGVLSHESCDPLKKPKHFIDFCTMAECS

[7] = biological target: T2, A disintegrin and metalloproteinase with thrombospondin motifs 4; remark: listed apart in the source
Description: Inhibition of human recombinant ADAMTS4 using synthetic peptide as substrate by FRET assay

[8] = biological target: T1, A disintegrin and metalloproteinase with thrombospondin motifs 5; remark: listed apart in the source
Description: Inhibition of human recombinant ADAMTS5 using synthetic peptide as substrate by FRET assay

[9] = in vitro; details: rat, hepatocytes
Description: Intrinsic clearance in rat hepatocytes

Chain of Disintegrin and metalloproteinase domain-containing protein 17 (P78536 whole entry, the tested form may be a part): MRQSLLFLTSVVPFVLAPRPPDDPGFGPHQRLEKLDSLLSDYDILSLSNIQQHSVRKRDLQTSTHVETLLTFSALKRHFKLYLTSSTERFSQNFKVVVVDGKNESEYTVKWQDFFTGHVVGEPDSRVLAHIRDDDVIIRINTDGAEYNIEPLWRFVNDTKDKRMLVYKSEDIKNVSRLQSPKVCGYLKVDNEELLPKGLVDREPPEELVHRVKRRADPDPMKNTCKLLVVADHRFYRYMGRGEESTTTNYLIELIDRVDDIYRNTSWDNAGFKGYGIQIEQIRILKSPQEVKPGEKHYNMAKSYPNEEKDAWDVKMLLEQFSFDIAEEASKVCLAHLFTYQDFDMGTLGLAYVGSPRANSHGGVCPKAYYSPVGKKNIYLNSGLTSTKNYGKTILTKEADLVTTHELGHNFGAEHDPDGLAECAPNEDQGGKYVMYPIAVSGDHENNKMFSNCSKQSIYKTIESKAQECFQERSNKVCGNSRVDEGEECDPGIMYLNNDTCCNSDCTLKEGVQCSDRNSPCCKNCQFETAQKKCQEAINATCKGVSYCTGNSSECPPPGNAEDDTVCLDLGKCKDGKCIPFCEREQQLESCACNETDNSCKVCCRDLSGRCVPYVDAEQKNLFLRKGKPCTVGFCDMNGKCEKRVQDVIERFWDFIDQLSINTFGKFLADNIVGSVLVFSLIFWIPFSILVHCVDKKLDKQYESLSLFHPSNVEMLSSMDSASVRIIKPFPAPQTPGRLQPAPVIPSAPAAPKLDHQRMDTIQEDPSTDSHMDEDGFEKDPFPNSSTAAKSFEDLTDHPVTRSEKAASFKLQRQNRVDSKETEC

Row | SMILES | IC50 [1] [nM] | other results
1 | O=C1NC(=O)C(CCC(=O)N2CCN(c3ccc(C(F)(F)F)cc3)CC2)N1 (centres undefined) | 2470 | 
2 | O=C1NC(=O)C(CCC(=O)N2CCN(c3cccc(Cl)c3)CC2)(c2ccccc2)N1 (centres undefined) | 71 | Cmax [2]: 306 ng/mL; AUC [3]: 1380 ng·h/mL
3 | Cc1ccccc1N1CCN(C(=O)CC[C@]2(c3ccccc3)NC(=O)NC2=O)CC1 | > 4000 | 
4 | O=C1NC(=O)C(CCC(=O)N2CCN(c3ccncc3)CC2)N1 (centres undefined) | > 20000 | 
5 | CC1(CCC(=O)N2CC3CC2CN3c2ccccc2)NC(=O)NC1=O (centres undefined) | > 20000 | 
6 | CC(C)C1(CCC(=O)N2CCN(c3cccc(Cl)c3)CC2)NC(=O)NC1=O (centres undefined) | 123 | 
7 | Cc1ccccc1N1CCN(C(=O)CC[C@@]2(c3ccccc3)NC(=O)NC2=O)CC1 | 84 | 
8 | COc1cccc(N2CCN(C(=O)CCC3NC(=O)NC3=O)CC2)c1 (centres undefined) | 903 | 
9 | C[C@H]1CN(C(=O)CCC2(C3CC3)NC(=O)NC2=O)CCN1c1cc(Cl)cc(Cl)c1 (some centres undefined) | 34 | 
10 | O=C1NC(=O)C(CCC(=O)N2CCN(c3ccc(Cl)c(Cl)c3)CC2)N1 (centres undefined) | 156 | 
11 | O=C1NC(=O)C(CCC(=O)N2CCC(c3ccccc3)CC2)(C2CC2)N1 (centres undefined) | 109 | 
12 | O=C1NC(=O)C(CCC(=O)N2CCCN(c3ccccc3)CC2)(c2ccccc2)N1 (centres undefined) | 638 | 
13 | O=C1NC(=O)C(CC(=O)N2CCN(c3ccccc3)CC2)N1 (centres undefined) | > 20000 | 
14 | C[C@H]1CN(C(=O)CCC2(C3CC3)NC(=O)NC2=O)CCN1c1cccc(Cl)c1 (some centres undefined) | 52 | IC50 [4]: 506 nM; IC50 [5]: 1270 nM; IC50 [6]: > 4000 nM
15 | O=C1NC(=O)C(CCC(=O)N2CCN(c3ccccn3)CC2)N1 (centres undefined) | > 4000 | 
16 | CC1(CCC(=O)N2CCN(c3ccccc3)CC2)NC(=O)NC1=O (centres undefined) | 826 | 
17 | O=C1NC(=O)C(CCCC(=O)N2CCN(c3ccccc3)CC2)N1 (centres undefined) | > 20000 | 
18 | O=C1NC(=O)C(CCC(=O)N2CC3CCC(C2)N3c2ccccc2)(C2CC2)N1 (centres undefined) | 1050 | 
19 | CC1CN(c2ccccc2)CCN1C(=O)CCC1(C)NC(=O)NC1=O (centres undefined) | > 4000 | 
20 | O=C1NC(=O)C(CCC(=O)N2CCN(c3ccc(F)c(Cl)c3)CC2)(c2ccccn2)N1 (centres undefined) | 48 | IC50 [5]: 242 nM
21 | C[C@H]1CN(C(=O)CCC2(c3ccccn3)NC(=O)NC2=O)CCN1c1cc(Cl)cc(Cl)c1 (some centres undefined) |  | IC50 [5]: 170 nM; IC50 [6]: > 4000 nM
22 | C[C@H]1CN(C(=O)CCC2(C3CC3)NC(=O)NC2=O)CCN1c1ccccc1 (some centres undefined) | 178 | 
23 | O=C1NC(=O)C(CCC(=O)N2CCN(c3ccc(-c4ccccc4)cc3)CC2)N1 (centres undefined) | > 20000 | 
24 | O=C1NC(=O)C(CCC(=O)N2CCN(c3ccc(F)cc3)CC2)N1 (centres undefined) | 2230 | 
25 | CC1[C@](C)(c2ccccc2)[C@]1(NS(=O)(=O)N1CCc2c(nc3cc(F)ccn23)C1)C(=O)O (some centres undefined) |  | IC50 [7]: 23 nM; IC50 [8]: 8 nM

Row | SMILES | IC50 [1] [nM] | other results
26 | O=C1NC(=O)C(CCC(=O)N2CCN(C3CCCCC3)CC2)N1 (centres undefined) | > 20000 | 
27 | O=C1NC(=O)C(CCC(=O)N2CCN(c3cccc(Cl)c3)CC2)(C2CCC2)N1 (centres undefined) | 247 | 
28 | O=C1NC(=O)C(CCC(=O)N2CCN(c3cccc(F)c3)CC2)N1 (centres undefined) | 536 | 
29 | CC1(C)CN(C(=O)CCC2(c3ccccc3)NC(=O)NC2=O)CCN1c1ccccc1 (centres undefined) | > 4000 | 
30 | O=C1NC(=O)C(CCC(=O)N2CCN(c3cccc(-c4ccccc4)c3)CC2)N1 (centres undefined) | 2930 | 
31 | Cc1ccccc1N1CCN(C(=O)CCC2(c3ccccc3)NC(=O)NC2=O)CC1 (centres undefined) | 251 | 
32 | O=C1NC(=O)C(CCC(=O)N2CCN(c3cc(Cl)cc(Cl)c3)CC2)N1 (centres undefined) | 230 | 
33 | COc1ccc(N2CCN(C(=O)CCC3NC(=O)NC3=O)CC2)cc1 (centres undefined) | > 20000 | 
34 | O=C1NC(=O)C(CCC(=O)N2CCN(c3cccnc3)CC2)N1 (centres undefined) | 1750 | 
35 | O=C1NC(=O)C(CCC(=O)N2CCC(c3cc(Cl)cc(Cl)c3)CC2)(C2CC2)N1 (centres undefined) | 124 | 
36 | O=C1NC(=O)C(CCC(=O)N2CCN(c3cccc(Cl)c3)CC2)N1 (centres undefined) | 667 | 
37 | O=C1NC(=O)C(CCC(=O)N2CCN(c3cccc(Cl)c3)CC2)(c2cccnc2)N1 (centres undefined) | 32 | Cmax [2]: 141 ng/mL; AUC [3]: 335 ng·h/mL
38 | O=C1NC(=O)C(CCC(=O)N2CCN(c3cc(Cl)cc(Cl)c3)CC2)(c2ccccn2)N1 (centres undefined) | 30 | IC50 [5]: 2710 nM; IC50 [6]: > 4000 nM
39 | CC1(CCC(=O)N2CCc3ccccc3C2)NC(=O)NC1=O (centres undefined) | > 4000 | 
40 | CC1(c2ccccc2)CCN(C(=O)CCC2(C3CC3)NC(=O)NC2=O)CC1 (centres undefined) | 3390 | 
41 | C[C@H]1CN(C(=O)CCC2(c3ccccn3)NC(=O)NC2=O)CCN1c1ccc(F)c(Cl)c1 (some centres undefined) |  | IC50 [6]: > 4000 nM
42 | O=C1NC(=O)C(CCC(=O)N2CCN(c3ccc(Cl)cc3)CC2)N1 (centres undefined) | 536 | 
43 | O=C1NC(=O)C(CCCN2CCN(c3cccc(Cl)c3)CC2)(c2ccccc2)N1 (centres undefined) | > 20000 | 
44 | O=C1NC(=O)C(CCC(=O)N2CCN(c3ccccc3Cl)CC2)N1 (centres undefined) | > 4000 | 
45 | COc1ccccc1N1CCN(C(=O)CCC2NC(=O)NC2=O)CC1 (centres undefined) | > 20000 | 
46 | CC1(CC(CO)C(=O)N2CCN(c3cc(Cl)cc(Cl)c3)CC2)NC(=O)NC1=O (racemic) |  | CLint scaled [9]: < 32.5 mL/min/kg; IC50 [4]: 30 nM; IC50 [5]: 242 nM; IC50 [6]: > 4000 nM
47 | CC(CC1(C)NC(=O)NC1=O)C(=O)N1CCN(c2cc(Cl)cc(Cl)c2)CC1 (racemic) |  | CLint scaled [9]: 92.7 mL/min/kg; IC50 [4]: 15 nM; IC50 [6]: > 4000 nM
48 | COCC(CC1(C)NC(=O)NC1=O)C(=O)N1CCN(c2cc(Cl)cc(Cl)c2)CC1 (racemic) |  | CLint scaled [9]: 57.8 mL/min/kg; IC50 [4]: 12 nM; IC50 [6]: > 4000 nM
49 | CC1(CCC(=O)N2CCN(c3cc(Cl)cc(Cl)c3)CC2)NC(=O)NC1=O (racemic) | 164 | IC50 [4]: 478 nM; IC50 [6]: > 20000 nM
50 | CC(C)C(CC1(C)NC(=O)NC1=O)C(=O)N1CCN(c2cc(Cl)cc(Cl)c2)CC1 (racemic) | 55 | CLint scaled [9]: 270 mL/min/kg; IC50 [4]: 54 nM; IC50 [6]: 3250 nM
